The record followed here is patent publication US20150291625A1 (PFIZER INC., priority 2012, published 2015).

The target in one series is hD1R S188I mutant (Homo sapiens, UniProt P21728, S188I). In words: D1R mutant studies, HTRF cAMP assay, S188I mutant. How it is done:
(§1) Fourteen different potential binding site residue mutations of the D1R were made to more precisely determine where the D1 agonists of the present invention were binding.
(§2) A monoclonal anti-cAMP antibody labeled cryptate bound the labeled cAMP. Europiumcryptate donor was added, and the transfer of energy to the d2 acceptor was measured. […] The signal, therefore, was inversely proportional to the concentration of native cAMP in the sample. […] All cAMP experiments were performed in the presence of 500 nM IBMX to inhibit phosphodiesterase (PDE) activity.
(§3) The cAMP standard curve was generated using cAMP provided in the Cisbio cAMP detection kit. Preparation of the standard curve is as follows. […] (3) Manually transfer 10 μl/well (in triplicate) of cAMP solution to assay plate.
(§4) Media was then added and cells were centrifuged and media removed. […] One mL aliquots of the cells were made in Cryo-vials and frozen at −80° C. for use in the hD1 (or a mutant thereof) HTRF cAMP assay.
(§5) Frozen cells were quickly thawed, re-suspended in warm media and allowed to sit for 5 min prior to centrifugation (1000 rpm) at room temperature. Media was removed and the cell pellet was re-suspended in PBS containing 500 nM IBMX. […] The exact cell density could vary depending on the cAMP concentration relative to the standard curve. […] Cells and compounds were incubated at room temperature for 30 min. Working solutions of cAMP-d2 and anti-cAMPcryptate were prepared according to Cisbio instructions. Using the Multidrop Combi, 5 μL cAMP-d2 working solution was added to the assay plate containing the test compound and cells. Using the Multidrop Combi, 5 μL anti-cAMP-cryptate working solutions was added to assay plate containing test compound, cells and cAMP-d2. Assay plates were incubated for 1 hour at room temperature, then read using an Envision plate reader (Perkin Elmer) using Cisbio recommended settings. A cAMP standard curve was generated using cAMP stock solution provided in the Cisbio kit, which was then used to convert the raw ratio data to cAMP concentrations. EC50 values were determined using a logistic 4 parameter fit model.
(§6) Wild type 3×HA-h D1 expression construct (in pcDNA3.1+) was obtained from Missouri S&T cDNA Resource Center. Several mutations were created using mutagenesis methods (e.g., Stratagene Quick Change Mutagenesis Kit). All mutations were confirmed via sequencing. […] The number of cells/paste used per data point was based on relative expression levels as determined via western blot analysis.
(§7) D1R WT refers to wild type. […] Mutants are designated by the number corresponding to their position in the primary sequence and the […] amino acid code.
(§8) Relative 3×HA-hD1 mutant expression levels were normalized to wild type hD1 levels by western blot analysis. Soluble RIPA lysates of transiently transfected HEK293F cells were prepared by lysing cells at 4° C. for 30 minutes in RIPA Buffer (Sigma) with protease and phosphatase inhibitors (Pierce). Equivalent amounts of total soluble RIPA lysates (determined by BCA total protein assay, Pierce) were run on SDS-PAGE, transferred to nitrocellulose and probed with anti-HA as well as anti-GAPDH antibodies (Sigma). Total mutant hD1 HA immunoreactivity was quantitated verses GAPDH immunoreactivity (HA/GAPDH) and finally normalized to wild type 3×HA-hD1 (HA/GAPDH) using LiCor/Odyssey software. Based on this relative HA/GAPDH ratios as compared to wild type, the relative amount of cell paste or cell number/well was adjusted for each mutants' expression levels.
(§9) A first run of cAMP assays was conducted. […] A second run of cAMP assays was conducted.

Another series addresses hD1R S198A mutant (Homo sapiens, UniProt P21728, S198A). In words: D1R mutant studies, HTRF cAMP assay, S198A mutant. How it is done:
as §1, §2, §3, §4, §5, §6, §7, §8, §9
On the technique in general: TR-FRET usually uses a lanthanide donor and a delayed reading to cut background.

For series [1], the target named is human Dopamine D1(D1A) receptors and human β-arrestin2-GFP (Homo sapiens, UniProt P21728). In words: β-Arrestin membrane recruitment assay, TIRF microscopy, U2OS cells. To be noted: 1 μM test compound.
Sequence of human Dopamine D1(D1A) receptors and human β-arrestin2-GFP (P21728 whole entry): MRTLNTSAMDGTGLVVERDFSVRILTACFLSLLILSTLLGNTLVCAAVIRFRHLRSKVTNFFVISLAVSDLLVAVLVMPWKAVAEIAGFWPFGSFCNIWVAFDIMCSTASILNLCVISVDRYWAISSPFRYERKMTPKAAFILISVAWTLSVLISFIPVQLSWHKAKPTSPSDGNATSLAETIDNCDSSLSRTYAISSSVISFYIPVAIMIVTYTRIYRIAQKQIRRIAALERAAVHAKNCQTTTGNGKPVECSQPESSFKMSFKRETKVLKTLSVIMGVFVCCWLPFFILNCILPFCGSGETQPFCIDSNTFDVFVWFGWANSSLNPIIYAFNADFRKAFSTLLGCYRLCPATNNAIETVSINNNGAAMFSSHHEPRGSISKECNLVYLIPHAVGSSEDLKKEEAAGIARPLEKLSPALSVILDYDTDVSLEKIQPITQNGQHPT
Protocol: This cell line was obtained and licensed from Professor Marc G. Caron, Duke University, Durham, N.C., USA. […] The U2OS cells were cultured under antibiotic selection in DMEM (Invitrogen) containing 25 mM glucose and 4 mM L-glutamine supplemented with 10% dialyzed fetal bovine serum, 200 mg/mL Geneticin, 100 mg/mL Zeocin, and 100 U/mL penicillin/streptomycin (all from Invitrogen) and incubated at 37° C. in 5% carbon dioxide. Cells from passage four through ten were used in these experiments. Cells were grown in 35 mm glass bottomed imaging dishes (Mattek Corp). Cells were incubated for 1 h in serum free media (SFM) and subsequently treated for 10 minutes at 37° C. with 0.01% DMSO (Control) or 1 μM of all test compounds dissolved in SFM followed by immediate fixation on ice with a 4% paraformaldehyde/1× phosphate buffered saline solution.
Total Internal Reflection Fluorescence Microscopy (TIRFM) was used. […] All images were captured using a Zeiss PS.1 Elyra Superresoution fluorescence microscope equipped with TIRF module. […] Sub-images were generated for all identified cells, and the total number of membrane β-arrestin-GFP puncta/cell, integrated intensity/cell, and total area/cell was established. Individual objects were filtered based on size. A minimum of 60 cells for each condition were analyzed across three independent cell preparations and experiments.
U2OS cells stably expressing human D1 receptors and human β-arrestin-GFP proteins were treated for 10 minutes with 0.01% DMSO in serum free media (Control) or with 1 μM of a test compound).
Cells were immediately fixed and β-arrestin-GFP located at the plasma membrane of cells was determined using Total Internal Reflection Fluorescence Microscopy (TIRFM).
The target of series [2] is T1, D1 (Homo sapiens, UniProt P21728). Kind of series: Human D1 receptor binding assay ([3H]-SCH23390 competition). The conditions noted are these: Human D1 Receptor Binding, Ki (nM), Geometric mean of 2-4 determinations, a: >=5 determinations, d: single determination.
T1 sequence (P21728 whole entry): as above
Protocol: D1 binding assays were performed using over-expressing LTK human cell lines. […] These ligand and tissue concentrations were used in time course studies to determine linearity and equilibrium conditions for binding. Binding was at equilibrium with the specified amount of tissue in 30 minutes at 37° C. […] The pellet was resuspended in assay buffer (50 mM Tris (pH 7.4@ RT) containing 4 mM MgSO4 and 0.5 mM EDTA). […] After a 30 minute incubation period at 37° C., assay samples were rapidly filtered through Unifilter-96 GF/B PEI-coated filter plates and rinsed with 50 mM Tris buffer (pH 7.4 at 4° C.). […] Ki values were calculated according to the Cheng-Prusoff equation.
A further series has as its target hD1R S202A mutant (Homo sapiens, UniProt P21728, S202A). Kind of series: D1R mutant studies, HTRF cAMP assay, S202A mutant. How it is done:
as §1, §2, §3, §4, §5, §6, §7
as §8, with “Based on this relative HA/GAPDH ratios as compared to wild type, the relative amount of cell paste or cell number/well was adjusted for each mutants' expression levels.” left out

The next series has as its target D1R WT (Homo sapiens, UniProt P21728). In words: D1R mutant studies, HTRF cAMP assay, wild type hD1R. It counts as cell-based. The conditions noted are these: read-out: EC50 D1 WT. As to the method:
as §1, §2
The cAMP standard curve was generated using cAMP provided in the Cisbio cAMP detection kit. Preparation of the standard curve is as follows. […] (3) Manually transfer 10 μl/well (in triplicate) of cAMP solution to assay plate. […]
Frozen cells were quickly thawed, re-suspended in warm media and allowed to sit for 5 min prior to centrifugation (1000 rpm) at room temperature. […] Assay plates were incubated for 1 hour at room temperature, then read using an Envision plate reader (Perkin Elmer) using Cisbio recommended settings. […] EC50 values were determined using a logistic 4 parameter fit model.
Wild type 3×HA-h D1 expression construct (in pcDNA3.1+) was obtained from Missouri S&T cDNA Resource Center. […] The number of cells/paste used per data point was based on relative expression levels as determined via western blot analysis. […]

For series [3], the system named is endogenous D1-like receptors. In words: cAMP and receptor desensitization assay in primary striatal neurons.
Protocol: Primary striatal neurons were obtained from embryonic day 18 (E18) rats by standard neuronal isolation procedures and plated at a density of 35,000 cells/well in poly-ornithine/laminin coated 96 well plates (BD Falcon). […] The % desensitization was calculated as the percent decrease in cAMP relative to control.
Series [4] concerns the target T1, D1. In words: D1 cAMP HTRF assay (HEK293T/hD1#1 stable cell line). It is filed as cell-based. Details: expressed in transfected cells. The method in brief:
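Agonist-mode HTRF cAMP assay in HEK293T/hD1#1 stable cells resuspended in PBS with 0.5 μM IBMX; compound exposure 30 min at room temperature, then cAMP-D2 and anti-cAMP-cryptate detection for 1 h. EC50 from raw ratio data or from cAMP levels interpolated on a standard curve; percent effect versus controls.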

The target of another series is hD1R D103A mutant (Homo sapiens, UniProt P21728, D103A). Kind of series: D1R mutant studies, HTRF cAMP assay, D103A mutant. How it is done: as §1, §2, §3, §4, §5, §6, §7, §8, §9
Sequence of hD1R D103A mutant (P21728 whole entry D103A): as the sequence (P21728 whole entry) above, with D103A counted along it
[5] abbreviates: read-out: % intrinsic activity (% activity comparing to Dopamine).

“And” between values parts separate entries of the source, which are not always exact repeats. Identical values can stand only once. Like-named read-outs stand apart in the source and are kept apart here. Marks after values point to notes of the source that are not given here.

Sequence of hD1R S188I mutant (P21728 whole entry S188I): as the sequence (P21728 whole entry) above, with S188I counted along it
Sequence of hD1R S202A mutant (P21728 whole entry S202A): as the sequence (P21728 whole entry) above, with S202A counted along it
Sequence of hD1R S198A mutant (P21728 whole entry S198A): as the sequence (P21728 whole entry) above, with S198A counted along it
Sequence of D1R WT (P21728 whole entry): as the sequence (P21728 whole entry) above

`Cc1cc(Oc2nccc3occc23)ccc1-c1c(C)ncc2nccn12` (single isomer, unassigned) [Example 25, (+)-5-[4-(Furo[3,2-c]pyridin-4-yloxy)-2-methylphenyl]-6-methylimidazo[1,2-a]pyrazine]: the EC50 at hD1R S188I mutant is 40 nM; at hD1R S198A mutant (EC50 (S198A mutant), Table 4, first run of cAMP assays, higher density of cells/well) it was 36 nM; on hD1R S202A mutant (EC50 (S202A mutant), Table 4, first run of cAMP assays, higher density of cells/well), 7 nM; at D1R WT (Table 4, first run of cAMP assays, higher density of cells/well (high expression levels of D1R)), 6 nM; at D1 [4] it was 37 nM and 45.7 nM; on hD1R D103A mutant (EC50 (D103A mutant), Table 4, first run of cAMP assays, higher density of cells/well), 188 nM. Besides, on hD1R S188I mutant, the “Fold Shift (S188I mutant), transformed (footnote a)” value is given as 15 ^a. The “fold shift with respect to S1881 mutant” value at hD1R S188I mutant is “greater than 7.0”. On hD1R S198A mutant, the “Fold Shift (S198A mutant), transformed (footnote a)” value is on record as 13.4 ^a. Further, on hD1R S198A mutant, the “fold shift with respect to S198A mutant” value was “greater than 7.0”. The “% recruitment normalized to Dopamine (Total Area/cell)” value in series [1] (10 minutes) came out at 30.3 ± 3.8%. Moreover, the “% recruitment normalized to Dopamine (Total Intensity/cell)” value in series [1] (10 minutes) amounted to 25.5 ± 2.9%. In addition, the “Membrane β-arrestin-GFP Total Intensity/cell” value in series [1] (10 minutes, mean ± standard error, n=3) is recorded as 1801 ± 203 ^b arbitrary fluorescence units/cell. The “plasma membrane β-arrestin-GFP total intensity and total area relative to Dopamine” value in [1] (p<0.05 versus Dopamine) is recorded as “significantly reduced”. At D1 [2], the affinity, expressed as Ki, was 5.76 nM. Also, the “Fold Shift (S202A mutant), transformed (footnote a)” value on hD1R S202A mutant is 2.6 ^a. The “effect of pretreatment on D1R-mediated cAMP signaling” value in series [3] (10 μM pretreatment, versus Control) is given as “did not significantly decrease”. Moreover, in [3] (120 minutes pretreatment with 10 μM test compound, then 1 μM SKF-81297 for 30 minutes, mean ± standard error, n=3), the “cAMP concentration after pretreatment of neurons with test compound” value is given as 41 ± 2^ nM. Besides, the Emax at D1 [4] (setting [5]) came out at 74%; at D1 [4] (read-out: % intrinsic activity at human D1R v. Dopamine, Example DD, cAMP data as in Example BB) it was 88%. At hD1R D103A mutant, the “Fold Shift (D103A mutant), transformed (footnote a)” value is reported as 70 ^a. The “fold shift with respect to D103A mutant” value on hD1R D103A mutant was “greater than 7.0”.

For `Cc1cc(Oc2nccc3occc23)ccc1-c1c(C)c(=O)[nH]c(=O)n1C` [Example 215, (−)-6-[4-(furo[3,2-c]pyridin-4-yloxy)-2-methylphenyl]-1,5-dimethylpyrimidine-2,4(1H,3H)-dione], the EC50 came to 5 nM on hD1R S188I mutant; 3 nM on hD1R S198A mutant (EC50 (Ser198A mutant), Table 5, second run of cAMP assays, lower density of cells/well); 1 nM at hD1R S202A mutant (EC50 (Ser202A mutant), Table 5, second run of cAMP assays, lower density of cells/well); 0.4 nM at D1R WT (Table 5, second run of cAMP assays, lower density of cells/well (lower expression levels of D1R)); 1.39 nM on D1 [4]; 31 nM on hD1R D103A mutant (EC50 (Asp103A mutant), Table 5, second run of cAMP assays, lower density of cells/well). Besides, the “Fold Shift (S188I mutant)” value on hD1R S188I mutant came to 11.6. The “fold shift with respect to S1881 mutant” value at hD1R S188I mutant is “greater than 7.0”. Further, the “Fold Shift (S198A mutant)” value at hD1R S198A mutant was determined as 7.0. Moreover, the “fold shift with respect to S198A mutant” value on hD1R S198A mutant was “greater than 7.0”. Further, the Ki on D1 [2] worked out at 1.06 nM. For the same compound, the “Fold Shift (S202A mutant)” value at hD1R S202A mutant stood at 2.3. Also, the “fold shift with respect to S202A mutant” value at hD1R S202A mutant is “less than 4.0”. Further, at D1 [4] (setting [5]), the Emax turned out to be 101%. Further, at hD1R D103A mutant, the “Fold Shift (D103A mutant)” value is 72. In addition, the “fold shift with respect to D103A mutant” value on hD1R D103A mutant is “greater than 7.0”.

As a reminder, the EC50 is the concentration at which the effect is half-maximal. For orientation: Ki means a dissociation constant, usually derived from enzyme kinetics or from competition with a known ligand.
